Source: patent US20110218515A1, “Methods for Treating Acute Myocardial Infarctions and Associated Disorders” (The Regents of the University of California, priority 2009, published 2011)
Entries after “also recorded” stand apart in the source; their conditions may differ.

Experiments:
[1] = tested on: congestive heart failure dogs, coronary perfused left ventricular preparation; assay: Ventricular fibrillation optical mapping, activation patterns, pacing-induced heart failure dogs; format: in vivo
From the text: (§1) Animal Models: Twenty-four dogs weighing 25-30 Kg were divided into three groups: control (n=11), congestive heart failure (n=7), and congestive heart failure with the antifibrotic drug pirfenidone (n=6). Heart Failure (CHF) was induced in 7 dogs via four weeks of rapid ventricular pacing via a lead placed in the RV and pulse generator set to pace at 240 bpm followed by ablation of the AV node to create complete heart block, as described in Li, et al., Circulation 1999; 100:87-95. Ventricular function was monitored weekly with transthoracic echocardiography for 4 weeks. At 4 weeks, the optical mapping study was performed.
(§2) Heart Failure with Pirfenidone (PFD): Heart failure was induced in 6 dogs as described above and PFD was administered as described in Lee et al., Circulation 2006; 114; 1703-12. Oral PFD (800 mg 3 times per day; InterMune, Brisbane, Calif.) was started 2 days before the initiation of pacing and was discontinued >6 half-lives (24 hours) before the optical mapping study.
Optical Mapping Studies: A coronary perfused left ventricular preparation was used as described in Wu et al., J Cardiovasc Electrophysiol 1998; 9:1336-47. Briefly, following sedation with sodium pentothal (0.25 mg/Kg), a left lateral thoracotomy is performed and the heart was rapidly excised. It was then perfused with cardioplegic solution ((in mmol/L): NaCl 123, KCl 15, NaHCO3 22, NaH2PO4 0.65, MgCl2 0.50, glucose 5.5, CaCl2 2, bubbled with 95% O2/5% CO2) retrogradely through the aorta. The ventricles were removed at approximately 1 cm below the AV ring and the left anterior descending coronary artery (LAD) was perfused. The right ventricle was removed and the left ventricle was cut to the size that was perfused by the LAD and included a papillary muscle. All ventricular branches were then ligated.
The ventricular preparation was then transferred to a tissue chamber maintained at 37° C. The perfusion line in the LAD was perfused with modified Tyrode's solution ((in mmol/L): NaCl 123, KCl 5.4, NaHCO3 22, NaH2PO4 0.65, MgCl2 0.50, glucose 5.5, CaCl2 2, bubbled with 95% O2/5% CO2). Prior to optical recordings, a bolus of 30-40 μl of the voltage sensitive dye PGH-1 was injected directly into the perfusate.
With an optical mapping system described in Wu et al., J Cardiovasc Electrophysiol 1998; 9:1336-47, optical recordings were then made from 4-cm^2 area on 3 surfaces of the preparation (epicardial, endocardial (including the papillary muscle, and transmural) by a 16×16 photodiode array (C4657 Hamamatsu, Bridgewater, N.J.) that recorded 256 simultaneous optical action potentials. During optical recordings from a preparation, contractility was blocked with 15 mM 2,3-butadione monoxime (BDM; Sigma-Aldrich)11. Plunge electrodes were placed on the recording surface around the field of view for both pacing and monitoring. Two plunge electrodes were dedicated for recording a bipolar signal for monitoring the electrical activity of the preparation. VF was initiated with either extra stimuli or with rapid burst pacing at a cycle length of 50 ms, a pulse width of 9.9 ms, and an output of 9.9 mA. Several 4-s episodes of VF were recorded on each surface in each preparation. Activation movies of the VF were then viewed, and the activation patterns were determined. […] Activation patterns and wave-front direction during VF were determined from raw fluorescence movies (isopotential). […]

[2] = tested on: TNF-α, TGF-β1, bFGF, PDGF, and EGF; details: literature report; cited from earlier work
[3] = tested on: congestive heart failure dogs, coronary perfused left ventricular preparation; assay: VF frequency domain analysis (dominant frequency), pacing-induced heart failure dogs; format: in vivo; details: CHF dogs with PFD
From the text: as §1, §2
With an optical mapping system described in Wu et al., J Cardiovasc Electrophysiol 1998; 9:1336-47, optical recordings were then made from 4-cm^2 area on 3 surfaces of the preparation (epicardial, endocardial (including the papillary muscle, and transmural) by a 16×16 photodiode array (C4657 Hamamatsu, Bridgewater, N.J.) that recorded 256 simultaneous optical action potentials. During optical recordings from a preparation, contractility was blocked with 15 mM 2,3-butadione monoxime (BDM; Sigma-Aldrich)11. Plunge electrodes were placed on the recording surface around the field of view for both pacing and monitoring. Two plunge electrodes were dedicated for recording a bipolar signal for monitoring the electrical activity of the preparation. VF was initiated with either extra stimuli or with rapid burst pacing at a cycle length of 50 ms, a pulse width of 9.9 ms, and an output of 9.9 mA. Several 4-s episodes of VF were recorded on each surface in each preparation. Activation movies of the VF were then viewed, and the activation patterns were determined. After termination of VF, signals were obtained during pacing at 250 ms and isochronal maps of activation were constructed to look at conduction. Activation patterns and wave-front direction during VF were determined from raw fluorescence movies (isopotential). […] VF was defined as rapid and irregular activations on the bipolar signal used for monitoring the electrical activity of the preparation.
Signal Processing and Frequency Domain Analysis: The signals obtained from the optical mapping recordings were sampled at 2,000 Hz, and for each signal the dominant frequency (DF) was determined and the organization was calculated as described Everett, et al., IEEE Trans Biomed Eng 2001; 48:969-78. Briefly, a fast Fourier transform (FFT) was calculated on the digitally filtered waveform. The data were detrended and multiplied by a Hamming window. The largest peak of the resulting magnitude spectrum was identified, and the positions of the harmonic peaks were determined on the basis of its position. The areas under the largest peak and three of its harmonic peaks were each calculated over a 1-Hz window. This produced an area under four peaks. The total area of the spectrum was calculated from 2 Hz up to but not including the fifth harmonic peak. The ratio of the power under the harmonic peaks to the total power in this range was calculated, and the resulting number was defined as the organization index (OI). The OI was theorized to represent the organization of AF for that signal at that period in time. To calculate the variance of the DFs, spatial coefficient of variance (SD/mean) of the DFs during a single episode of AF among all recording sites and temporal coefficient of variance of average DFs from among AF episodes for each mapping field within each preparation were calculated. Discrete, stable, high frequency areas were noted. […]

[4] = CHF dogs, oral PFD 800 mg 3 times per day, one line per dog, listed as PFD

Cc1ccc(=O)n(-c2ccccc2)c1 [pirfenidone]
mapped epicardial surfaces having either focal activation or a spiral wave ([1]; CHF dogs with PFD): 2/6
mapped transmural surfaces with spiral wave activation pattern correlated to stable high DF areas ([1]; CHF dogs with PFD): 50%
VF Activation Patterns, Endocardial [1, 4]: either multiple or broad wavefront activation; also recorded: multiple wave; also recorded: broad wavefront
VF Activation Patterns, Epicardial [1, 4]: multiple wave; also recorded: focal
VF Activation Patterns, Transmural [1, 4]: spiral wave; also recorded: multiple wave
biosynthesis or release of various cytokines such as TNF-α, TGF-β1, bFGF, PDGF, and EGF [2]: inhibit excessive biosynthesis or release
collagen expression [2]: decrease collagen expression
dogs with at least one surface with VF characterized by high DF areas ([3]; CHF 6 of 7, Controls 3 of 11): 3 of 6
gradient of frequencies over distance, transmural surface ([3]; untreated heart failure animals have a very large gradient): preserved the transmural gradient to that similar to control animals
DF Spatial CoV ([3]; Endocardium): 0.11 ± 0.04
DF Temporal CoV ([3]; Endocardium): 0.07 ± 0.03
Max DF ([3]; Endocardium): 10.44 ± 1.32 Hz
Mean DF ([3]; Endocardium): 8.29 ± 0.68 Hz
DF Spatial CoV ([3]; Epicardium): 0.09 ± 0.04
DF Temporal CoV ([3]; Epicardium): 0.05 ± 0.01
Max DF ([3]; Epicardium): 10.92 ± 0.98 Hz
Mean DF ([3]; Epicardium): 9.17 ± 1.08 Hz
DF Spatial CoV ([3]; Transmural): 0.14 ± 0.06
DF Temporal CoV ([3]; Transmural): 0.08 ± 0.02
Max DF ([3]; Transmural): 10.24 ± 1.89 Hz
Mean DF ([3]; Transmural): 7.93 ± 1.52 Hz
